# Counter-ions that a name gives are not always drawn. Like-named read-outs stand apart in the source and are kept apart here.
# Tests used:
# [1] = tested on: HCMV (human cytomegalovirus); test: Anti-HCMV cytopathogenicity test: inhibition of CPE; assay type: cell-based; conditions: for EC50: read-out: HCMV EC50
# Protocol: (§1) Anti-HCMV (Anti-Human Cytomegalovirus) Cytopathogenicity Tests
# (§2) The test compounds are employed as 50 millimolar (mM) solutions in dimethyl sulphoxide (DMSO). Ganciclovir®, Foscarnet® and Cidofovir® are used as reference compounds. After addition of in each case 2 μl of the 50, 5, 0.5 and 0.05 mM DMSO stock solutions to 98 μl portions of cell culture medium in row 2 A-H for duplicate determinations, 1:2 dilutions are carried out with 50 μl portions of medium up to row 11 of the 96-well plate. The wells in rows 1 and 12 each contain 50 μl of medium. 150 μl of a suspension of 1×10^4 cells (human prepuce fibroblasts [NHDF]) are then pipetted into each of the wells (row 1=cell control) and, in rows 2-12, a mixture of HCMV-infected and uninfected NHDF cells (M.O.I.=0.001−0.002), i.e. 1-2 infected cells per 1000 uninfected cells. Row 12 (without substance) serves as virus control. The final test concentrations are 250-0.0005 μM. The plates are incubated at 37° C./5% CO2 for 6 days, i.e. until all the cells are infected in the virus controls (100% cytopathogenic effect [CPE]). The wells are then fixed and stained by adding a mixture of formalin and Giemsa's dye (30 minutes), washed with double-distilled water and dried in a drying oven at 50° C. The plates are then assessed visually using an overhead microscope (plaque multiplier from Technomara).
# (§3) The following data can be acquired from the test plates:
# EC50 (HCMV)=substance concentration in μM which inhibits the CPE (cytopathic effect) by 50% compared with the untreated virus control;
# SI (selectivity index)=CC50 (NHDF)/EC50 (HCMV).
# [2] = Anti-HCMV cytopathogenicity test: cytostatic effect on NHDF cells; assay type: cell-based; conditions: human, human prepuce fibroblasts (NHDF cells), 6 days incubation, visual assessment
# Protocol: as §1, §2, §3
# CC50 (NHDF)=substance concentration in μM at which no visible cytostatic effects on the cells are evident by comparison with the untreated cell control;
# [3] = Human betaherpesvirus 5, 144 h, HCMV-infected NHDF cells, M.O.I. 0.001-0.002, 6 days, inhibition of CPE by 50%
"EC50 [1, 3] [nM]",SMILES,SI HCMV (selectivity index = CC50 (NHDF)/EC50 (HCMV)) [1],"EC50 ([1]; Human betaherpesvirus 5, NHDF, 144 h) [nM]",CC50 at 6 days [2] [µM]
,"COc1cccc(N2CCN(C3=Nc4cnccc4C(CC(=O)O)N3c3cccc(C(F)(F)F)c3)CC2)c1 (stereo not drawn) [Example 4, {2-[4-(3-Methoxyphenyl)piperazin-1-yl]-3-[3-(trifluoromethyl)phenyl]-3,4-dihydropyrido[3,4-d]-pyrimidin-4-yl}acetic acid hydrochloride]",470,200,94
140,"COc1ccc(C)cc1N1C(N2CCN(c3ccc(F)cc3)CC2)=Nc2ccncc2C1CC(=O)O (stereo not drawn) [Example 8, [2-[4-(4-Fluorophenyl)piperazin-1-yl]-3-(2-methoxy-5-methylphenyl)-3,4-dihydropyrido[4,3-d]-pyrimidin-4-yl] acetic acid]",1786,,250
50,"COc1ccc(C(F)(F)F)cc1N1C(N2CCN(c3ccc(F)cc3)CC2)=Nc2ccncc2C1CC(=O)O (stereo not drawn) [Example 9, {2-[4-(4-Fluorophenyl)piperazin-1-yl]-3-[2-methoxy-5-(trifluoromethyl)phenyl]-3,4-dihydro-pyrido[4,3-d]pyrimidin-4-yl}acetic acid]",1880,,94
